Data on 23 molecules can be found in ChEMBL document CHEMBL1201862, “PubChem BioAssay data set” (2004).

Some test systems named below: DLD-1; M19-MEL; HOP-18; XF498; KM-20L2; DMS-114; LXFL 529; DMS-273; RXF 631.
Test in all cases: NCI tumour cell line growth inhibition, 48 h

Molecules are shown by their SMILES.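 96-well plates; 48 h exposure; 5 concentrations. Endpoints by linear interpolation between flanking doses. Not reached: highest tested concentration assigned. GI50 = concentration required for 50% inhibition of growth.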 The source made the active and inactive calls. Cut-off read from the data, not from the text of the source: active = GI50 up to about 1.1 µM and inactive = higher.

On to `COc1c(Cl)c(Cl)c(OC)c2c1C(=O)C=CC2=O`, for which the GI50 in the assay on DLD-1 was 14.5 µM (inactive); in the assay on M19-MEL it was 18 µM (inactive); with HOP-18, 44.5 µM (inactive); with XF498 it was 16.9 µM (inactive); in the assay on KM-20L2 it was 68.2 µM (inactive); with DMS-114 it was 16 µM (inactive). The GI50 in the assay with LXFL 529 is 15.8 µM (inactive); in the assay on DMS-273, 15.2 µM (inactive).
In the case of `O=C(/C=C/c1ccc(Cl)c(Cl)c1)c1ccc2ccccc2c1`, the GI50 in the assay on DLD-1, with M19-MEL, with HOP-18, with KM-20L2, in the assay with DMS-114 and with RXF 631 was > 100 µM (inactive) in each case. Besides, the GI50 in the assay with LXFL 529 and in the assay on DMS-273 was > 100 µM (inactive) in each case.
As for `CCN(CC)CCC(=O)N1CCc2c([nH]c3ccccc23)C1c1cccnc1` (stereo unspecified), the GI50 with DLD-1, in the assay on M19-MEL, in the assay on HOP-18, with XF498, in the assay on KM-20L2 and in the assay on DMS-114 was > 100 µM (inactive) each time. Further, the GI50 with LXFL 529 and in the assay with DMS-273 was > 100 µM (inactive) each time.
`CCOc1ccc(NC(=O)/C(=C/c2ccccc2)C(C)=O)cc1`: the GI50 in the assay on DLD-1 was 7.38 µM (inactive); in the assay with M19-MEL, 10.8 µM (inactive); in the assay on HOP-18, 12.9 µM (inactive); in the assay with XF498, 14.4 µM (inactive); in the assay on KM-20L2, 12.9 µM (inactive); in the assay on DMS-114, 11.9 µM (inactive). The GI50 with DMS-273 was 9.14 µM (inactive).
Turning to `C[N+](C)(C)CC(=O)N/N=C(/C(=O)Nc1ccc(Br)cc1)C1C(=O)NC(=O)NC1=O`, the GI50 in the assay with DLD-1, with M19-MEL, in the assay on HOP-18, with KM-20L2, in the assay with DMS-114 and in the assay on RXF 631 was > 100 µM (inactive) each time. Moreover, the GI50 with LXFL 529 and in the assay with DMS-273 was > 100 µM (inactive) in each case.
As to `O=C(Cc1ccc(F)cc1)NC1=C(Cl)C(=O)c2ccccc2C1=O`, the GI50 in the assay on DLD-1 is 2.18 µM (inactive); in the assay on M19-MEL, 3.74 µM (inactive); with XF498 it was 1.76 µM (inactive); in the assay with KM-20L2 it was 17.7 µM (inactive); in the assay with DMS-114, 0.514 µM (active); with RXF 631, 7.36 µM (inactive). In addition, the GI50 in the assay on LXFL 529 was 2.8 µM (inactive); in the assay on DMS-273 it was 3.63 µM (inactive).
Regarding `COc1ccc2nc(NC(=O)C(=O)CC(=O)c3ccc([N+](=O)[O-])cc3)sc2c1`, the GI50 with DLD-1 is > 100 µM (inactive); with M19-MEL it was > 100 µM (inactive); in the assay on XF498, > 100 µM (inactive); in the assay on KM-20L2 it was > 100 µM (inactive); with DMS-114, 90.6 µM (inactive); with RXF 631, > 100 µM (inactive). The GI50 with LXFL 529 and with DMS-273 was > 100 µM (inactive) throughout.
Turning to `C[N+](C)(C)CCc1ccccc1`, the GI50 in the assay with DLD-1, with M19-MEL, in the assay with XF498, in the assay on KM-20L2, in the assay on DMS-114 and with RXF 631 was > 100 µM (inactive) in each case. Besides, the GI50 with LXFL 529 and in the assay on DMS-273 was > 100 µM (inactive) each time.
For the molecule `Cc1cc(C)c(-n2c(-c3ccccc3)cs/c2=N\N=C2C=C(C(C)(C)C)C(=O)C(C(C)(C)C)=C2)c(C)c1`, the GI50 with DLD-1 is > 100 µM (inactive); in the assay on M19-MEL, > 100 µM (inactive); with HOP-18 it was > 100 µM (inactive); in the assay with XF498, > 100 µM (inactive); in the assay with KM-20L2 it was > 100 µM (inactive); in the assay with DMS-114, 47.4 µM (inactive). The GI50 is 75.5 µM (inactive) with LXFL 529 and > 100 µM (inactive) in the assay on DMS-273.
As for `CN(C)/N=N/c1ccccc1`, the GI50 in the assay on DLD-1 was > 100 µM (inactive); in the assay with M19-MEL, 43.4 µM (inactive); in the assay on HOP-18 it was > 100 µM (inactive); in the assay on XF498, > 100 µM (inactive); in the assay on KM-20L2, 42.3 µM (inactive); in the assay with DMS-114, 31.6 µM (inactive). The GI50 in the assay with LXFL 529 and with DMS-273 was > 100 µM (inactive) in each case.
On to `NNC(=O)CC(=O)Nc1ccccc1F`, for which the GI50 with DLD-1, in the assay on M19-MEL, in the assay on HOP-18, in the assay with KM-20L2, in the assay on DMS-114 and in the assay with RXF 631 was > 100 µM (inactive) each time. Moreover, the GI50 with LXFL 529 and with DMS-273 was > 100 µM (inactive) throughout.
With `C(=C\c1c2oc(-c3ccccc3)cc(-c3ccccc3)c-2c2ccccc12)/C=C1\c2ccccc2-c2c(-c3ccccc3)cc(-c3ccccc3)[o+]c21.[O-][Cl+3]([O-])([O-])[O-]`, the GI50 in the assay with DLD-1, in the assay with M19-MEL, with XF498, in the assay with KM-20L2, with DMS-114 and in the assay on LXFL 529 was > 100 µM (inactive) in each case. In addition, the GI50 in the assay with DMS-273 was > 100 µM (inactive).
`COc1cccc2c1C1=CC(=O)CCC1C(C)(C)O2` (stereo unspecified): the GI50 was 57.5 µM (inactive) in the assay with DLD-1; > 100 µM (inactive) with M19-MEL; > 100 µM (inactive) in the assay on HOP-18; > 100 µM (inactive) in the assay on KM-20L2; 27.8 µM (inactive) in the assay on DMS-114; > 100 µM (inactive) with RXF 631. Besides, the GI50 with LXFL 529 and in the assay with DMS-273 was > 100 µM (inactive) in each case.
Regarding `CC(SC(=S)N1CCOCC1)c1cc2oc(=O)n(C)c2cc1Cl` (stereo unspecified), the GI50 was > 100 µM (inactive) in the assay with DLD-1; > 100 µM (inactive) in the assay on M19-MEL; > 100 µM (inactive) in the assay on HOP-18; > 100 µM (inactive) in the assay with XF498; > 100 µM (inactive) with KM-20L2; 84.5 µM (inactive) in the assay on DMS-114. In addition, the GI50 in the assay with LXFL 529 is 57.4 µM (inactive); in the assay on DMS-273 it was > 100 µM (inactive).
Consider `O=C1/C(=C/c2ccc(Cl)cc2)CCC1CNc1ccc(Cl)cc1` (stereo unspecified), for which the GI50 was 1.68 µM (inactive) in the assay with DLD-1; 3.97 µM (inactive) in the assay on M19-MEL; 33.9 µM (inactive) in the assay on HOP-18; 12.8 µM (inactive) with XF498; 1.46 µM (inactive) with KM-20L2; 3.94 µM (inactive) with DMS-114. For the same molecule, the GI50 was 0.711 µM (active) in the assay with LXFL 529 and 1.73 µM (inactive) in the assay with DMS-273.
Consider `CCOC(=O)c1ccc(/N=C/c2ccc(N(CCC#N)S(=O)(=O)c3ccccc3)cc2C)cc1`, for which the GI50 in the assay on DLD-1 is 25.1 µM (inactive); with M19-MEL it was 36.6 µM (inactive); in the assay with XF498, > 100 µM (inactive); in the assay with KM-20L2 it was 16.4 µM (inactive); in the assay with DMS-114, 36 µM (inactive); with RXF 631, > 100 µM (inactive). For the same molecule, the GI50 with LXFL 529 is 6.01 µM (inactive); with DMS-273, 65.3 µM (inactive).
In the case of `CN(CCN1C(=O)c2cc([N+](=O)[O-])cc3cc([N+](=O)[O-])cc(c23)C1=O)CCN1C(=O)c2cc([N+](=O)[O-])cc3cc([N+](=O)[O-])cc(c23)C1=O`, the GI50 in the assay with DLD-1 was 0.448 µM (active); in the assay on M19-MEL, 0.369 µM (active); with HOP-18, 10.6 µM (inactive); in the assay with XF498, 0.211 µM (active); with KM-20L2, 1.1 µM (active); in the assay with DMS-114 it was 0.605 µM (active). Besides, the GI50 was 0.211 µM (active) in the assay on LXFL 529 and 0.391 µM (active) in the assay with DMS-273.
In the case of `CN(C)C=C1C(=O)N(C)C(=O)N(C)C1=O`, the GI50 in the assay with DLD-1, in the assay with M19-MEL, in the assay with HOP-18, in the assay with XF498, in the assay on KM-20L2 and in the assay with DMS-114 was > 100 µM (inactive) each time. In addition, the GI50 with LXFL 529 and in the assay with DMS-273 was > 100 µM (inactive) each time.
For `C=C1C(=O)OC2C1C(OC(=O)/C(=C/C)COC(C)=O)CC1(CO1)C1C(OC(=O)/C(=C/C)CO)C=C(C)C21` (stereo unspecified), the GI50 in the assay with DLD-1 is 1.34 µM (inactive); in the assay on M19-MEL, 1.79 µM (inactive); in the assay on HOP-18 it was 1.34 µM (inactive); in the assay on XF498 it was 1.45 µM (inactive); with KM-20L2 it was 2.52 µM (inactive); in the assay with DMS-114, 1.85 µM (inactive). Also, the figures for the GI50 in the assay with LXFL 529 and in the assay on DMS-273 were 0.427 µM (active) and 1.73 µM (inactive), respectively.
With `Cc1ccc(S(=O)(=O)c2ccc(C)cc2[N+](=O)[O-])cc1`, the GI50 in the assay with DLD-1 was > 100 µM (inactive); in the assay with M19-MEL, 47.1 µM (inactive); with HOP-18, > 100 µM (inactive); in the assay on KM-20L2, > 100 µM (inactive); in the assay with DMS-114, 22.4 µM (inactive); in the assay on LXFL 529, 44.3 µM (inactive). For the same molecule, the GI50 with DMS-273 is > 100 µM (inactive).
`C=C/C=C(\NC(=O)C(Cl)(Cl)Cl)[Si](C)(C)C`: the GI50 in the assay with DLD-1, in the assay on M19-MEL, in the assay on HOP-18, in the assay with XF498, in the assay with KM-20L2 and in the assay with DMS-114 was > 100 µM (inactive) in each case. Also, the GI50 with LXFL 529 and with DMS-273 was > 100 µM (inactive) throughout.
Turning to `COc1ccc(C/C(=N/O)C(=O)NCCc2cc(Br)c(OCCCN(C)C)c(Br)c2)cc1Br` [APLYSAMINE 2], the GI50 in the assay on DLD-1 is 7.8 µM (inactive); in the assay with M19-MEL it was 18.2 µM (inactive); with HOP-18, 0.0528 µM (active); in the assay on XF498, 12.9 µM (inactive); in the assay on KM-20L2 it was 18.5 µM (inactive); in the assay on DMS-114 it was 18.5 µM (inactive). Also, the GI50 in the assay on LXFL 529 is 16.1 µM (inactive); in the assay on DMS-273 it was 0.791 µM (active).
Turning to `CC[C@@]1(O)C(=O)OCc2c1cc1n(c2=O)Cc2cc3ccccc3nc2-1` [CAMPTOTHECIN], the GI50 in the assay on DLD-1 was 0.243 µM (active); in the assay with M19-MEL, 0.048 µM (active); with HOP-18, 0.122 µM (active); in the assay on XF498, 0.0483 µM (active); in the assay on KM-20L2, 0.0776 µM (active); with DMS-114, 0.0206 µM (active). Besides, the GI50 is 0.372 µM (active) with LXFL 529 and < 0.01 µM (active) with DMS-273.
